Values of other authors in patent publication US20210007979A1 (FULTON MEDICINAL S.P.A., priority 2018, published 2021).
Structures can show the parent of a compound that is named as a salt.

Tests used:
[1] = not given; remark: listed apart in the source

SMILES: CCCc1nn(C)c2c(=O)[nH]c(-c3cc(S(=O)(=O)N4CCN(C)CC4)ccc3OCC)nc12 [sildenafil citrate, Sildenafil citrate]
- Permeability of the oral mucosae: low permeability
- Solubility in water [1]: sparingly soluble
